Test results taken from PubChem BioAssay AID1259407 (Chemical Carcinogenesis Research Information System (CCRIS), 2018).
Active and inactive are the calls of the source. No rule for the calls is given here.

Tested on: CCRIS mutagenicity, Ames/micronucleus/aberration tests
Assay: CCRIS mutagenicity studies
[1] = Test System: AMES SALMONELLA TYPHIMURIUM, Strain/Indicator: TA98, Metabolic Activation: HAMSTER, LIVER, S-9, AROCLOR 1254 (10%), Method: PREINCUBATION
[2] = Test System: AMES SALMONELLA TYPHIMURIUM, Strain/Indicator: TA98, Metabolic Activation: HAMSTER, LIVER, S-9, AROCLOR 1254, Method: PREINCUBATION
[3] = Test System: AMES SALMONELLA TYPHIMURIUM, Strain/Indicator: TA98, Metabolic Activation: NONE, Method: PREINCUBATION
[4] = Test System: AMES SALMONELLA TYPHIMURIUM, Strain/Indicator: TA98, Metabolic Activation: RAT, LIVER, S-9, AROCLOR 1254 (10%), Method: PREINCUBATION
[5] = Test System: AMES SALMONELLA TYPHIMURIUM, Strain/Indicator: TA98, Metabolic Activation: RAT, LIVER, S-9, AROCLOR 1254, Method: PREINCUBATION
[6] = Test System: AMES SALMONELLA TYPHIMURIUM, Strain/Indicator: TA100, Metabolic Activation: HAMSTER, LIVER, S-9, AROCLOR 1254 (10%), Method: PREINCUBATION
[7] = Test System: AMES SALMONELLA TYPHIMURIUM, Strain/Indicator: TA100, Metabolic Activation: HAMSTER, LIVER, S-9, AROCLOR 1254, Method: PREINCUBATION
[8] = Test System: AMES SALMONELLA TYPHIMURIUM, Strain/Indicator: TA100, Metabolic Activation: NONE, Method: PREINCUBATION
[9] = Test System: AMES SALMONELLA TYPHIMURIUM, Strain/Indicator: TA100, Metabolic Activation: RAT, LIVER, S-9, AROCLOR 1254 (10%), Method: PREINCUBATION
[10] = Test System: AMES SALMONELLA TYPHIMURIUM, Strain/Indicator: TA100, Metabolic Activation: RAT, LIVER, S-9, AROCLOR 1254, Method: PREINCUBATION
[11] = Test System: AMES SALMONELLA TYPHIMURIUM, Strain/Indicator: TA1535, Metabolic Activation: HAMSTER, LIVER, S-9, AROCLOR 1254 (10%), Method: PREINCUBATION
[12] = Test System: AMES SALMONELLA TYPHIMURIUM, Strain/Indicator: TA1535, Metabolic Activation: HAMSTER, LIVER, S-9, AROCLOR 1254, Method: PREINCUBATION
[13] = Test System: AMES SALMONELLA TYPHIMURIUM, Strain/Indicator: TA1535, Metabolic Activation: NONE, Method: PREINCUBATION
[14] = Test System: AMES SALMONELLA TYPHIMURIUM, Strain/Indicator: TA1535, Metabolic Activation: RAT, LIVER, S-9, AROCLOR 1254 (10%), Method: PREINCUBATION
[15] = Test System: AMES SALMONELLA TYPHIMURIUM, Strain/Indicator: TA1535, Metabolic Activation: RAT, LIVER, S-9, AROCLOR 1254, Method: PREINCUBATION
[16] = Test System: AMES SALMONELLA TYPHIMURIUM, Strain/Indicator: TA1537, Metabolic Activation: HAMSTER, LIVER, S-9, AROCLOR 1254 (10%), Method: PREINCUBATION
[17] = Test System: AMES SALMONELLA TYPHIMURIUM, Strain/Indicator: TA1537, Metabolic Activation: NONE, Method: PREINCUBATION
[18] = Test System: AMES SALMONELLA TYPHIMURIUM, Strain/Indicator: TA1537, Metabolic Activation: RAT, LIVER, S-9, AROCLOR 1254 (10%), Method: PREINCUBATION
[19] = Test System: AMES SALMONELLA TYPHIMURIUM, Strain/Indicator: TA98, Metabolic Activation: NONE, Method: STANDARD PLATE
[20] = Test System: AMES SALMONELLA TYPHIMURIUM, Strain/Indicator: TA100, Metabolic Activation: NONE, Method: STANDARD PLATE
[21] = Test System: AMES SALMONELLA TYPHIMURIUM, Strain/Indicator: TA98, Metabolic Activation: RAT, LIVER, S-9, AROCLOR 1254, Method: STANDARD PLATE

CCC(Cl)C(Cl)C(Cl)CC(Cl)C(Cl)C(C)Cl (stereo not given)
mutagenic call (Test System: AMES SALMONELLA TYPHIMURIUM, Strain/Indicator: TA97, Metabolic Activation: HAMSTER, LIVER, S-9, AROCLOR 1254, Method: PREINCUBATION): inactive; negative | mutagenic call (Test System: AMES SALMONELLA TYPHIMURIUM, Strain/Indicator: TA97, Metabolic Activation: NONE, Method: PREINCUBATION): inactive; negative | mutagenic call (Test System: AMES SALMONELLA TYPHIMURIUM, Strain/Indicator: TA97, Metabolic Activation: RAT, LIVER, S-9, AROCLOR 1254, Method: PREINCUBATION): inactive; negative | mutagenic call [1]: inactive; negative | mutagenic call [2]: inactive; negative | mutagenic call [3]: inactive; negative | mutagenic call [4]: inactive; negative | mutagenic call [5]: inactive; negative | mutagenic call [6]: inactive; negative | mutagenic call [7]: inactive; negative | mutagenic call [8]: inactive; negative | mutagenic call [9]: inactive; negative | mutagenic call [10]: inactive; negative | mutagenic call [11]: inactive; negative | mutagenic call [12]: inactive; negative | mutagenic call [13]: inactive; negative | mutagenic call [14]: inactive; negative | mutagenic call [15]: inactive; negative | mutagenic call [16]: inactive; negative | mutagenic call [17]: inactive; negative | mutagenic call [18]: inactive; negative | mutagenic call (Test System: MOUSE LYMPHOMA, Strain/Indicator: L5178Y (TK+/TK-), Metabolic Activation: NONE, Method: SUSPENSION/PLATE): active; positive

O=C(Cl)c1ccccc1F
mutagenic call [2]: active; positive | mutagenic call [3]: inactive; negative | mutagenic call [5]: active; positive | mutagenic call [7]: active; positive | mutagenic call [8]: inactive; negative | mutagenic call [10]: active; positive | mutagenic call [12]: inactive; negative | mutagenic call [13]: inactive; negative | mutagenic call [15]: inactive; negative | mutagenic call (Test System: AMES SALMONELLA TYPHIMURIUM, Strain/Indicator: TA1537, Metabolic Activation: HAMSTER, LIVER, S-9, AROCLOR 1254, Method: PREINCUBATION): inactive; negative | mutagenic call [17]: inactive; negative | mutagenic call (Test System: AMES SALMONELLA TYPHIMURIUM, Strain/Indicator: TA1537, Metabolic Activation: RAT, LIVER, S-9, AROCLOR 1254, Method: PREINCUBATION): inactive; negative

CC(C)(C)c1cc(-c2ccccc2)ccc1[N+](=O)[O-]
mutagenic call [19]: inactive; negative | mutagenic call (Test System: AMES SALMONELLA TYPHIMURIUM, Strain/Indicator: TA98, Metabolic Activation: S-9, Method: STANDARD PLATE): inactive; negative | mutagenic call [20]: inactive; negative | mutagenic call (Test System: AMES SALMONELLA TYPHIMURIUM, Strain/Indicator: TA100, Metabolic Activation: S-9, Method: STANDARD PLATE): inactive; negative

O=S(=O)(O)O.[NH-]CC1(C[NH-])CCCCC1.[Pt+2]
mutagenic call (Test System: CHINESE HAMSTER, Strain/Indicator: V-79/6-THIOGUANINE (HGPRT), Metabolic Activation: NONE, Method: STANDARD PLATE): active; positive

C/C=C1\C[C@@H](C)[C@](C)(O)C(=O)OC[C@H]2CCN3CC[C@@H](OC1=O)C23 (stereo not given in full)
mutagenic call (Test System: UDS RAT HEPATOCYTES, Strain/Indicator: THY INCORP, Metabolic Activation: NONE, Method: AUTORADIOGRAPHY): inactive; negative

BrC(Br)C(Br)Br
mutagenic call (Test System: AMES SALMONELLA TYPHIMURIUM, Strain/Indicator: TA97, Metabolic Activation: NONE, Method: STANDARD PLATE): active; positive | mutagenic call (Test System: AMES SALMONELLA TYPHIMURIUM, Strain/Indicator: TA97, Metabolic Activation: RAT, LIVER, S-9, AROCLOR 1254, Method: STANDARD PLATE): active; positive | mutagenic call [19]: inactive; negative | mutagenic call [21]: active; positive | mutagenic call [20]: inactive; negative | mutagenic call (Test System: AMES SALMONELLA TYPHIMURIUM, Strain/Indicator: TA100, Metabolic Activation: RAT, LIVER, S-9, AROCLOR 1254, Method: STANDARD PLATE): active; positive | mutagenic call (Test System: AMES SALMONELLA TYPHIMURIUM, Strain/Indicator: TA104, Metabolic Activation: NONE, Method: STANDARD PLATE): inactive; negative | mutagenic call (Test System: AMES SALMONELLA TYPHIMURIUM, Strain/Indicator: TA104, Metabolic Activation: RAT, LIVER, S-9, AROCLOR 1254, Method: STANDARD PLATE): active; positive | mutagenic call (Test System: AMES SALMONELLA TYPHIMURIUM, Strain/Indicator: TA1530, Metabolic Activation: NONE, Method: PREINCUBATION): active; positive

c1cc2c3c(c4c(ccc5ccccc54)cc3c1)[C@H]1O[C@@H]21
mutagenic call [3]: active; positive | mutagenic call [19]: active; positive | mutagenic call [21]: active; positive | mutagenic call (Test System: CHINESE HAMSTER OVARY, Strain/Indicator: V-79/6-THIOGUANINE, Metabolic Activation: NONE, Method: FLASK ASSAY): active; positive

O=[N+]([O-])c1ccc(F)c([N+](=O)[O-])c1
mutagenic call (Test System: AMES SALMONELLA TYPHIMURIUM, Strain/Indicator: TA98(1,8-DNP6), Metabolic Activation: NONE, Method: PREINCUBATION): active; positive | mutagenic call (Test System: AMES SALMONELLA TYPHIMURIUM, Strain/Indicator: TA98(NR), Metabolic Activation: NONE, Method: PREINCUBATION): active; positive | mutagenic call [3]: active; positive | mutagenic call (Test System: AMES SALMONELLA TYPHIMURIUM, Strain/Indicator: TA98, Metabolic Activation: RAT, LIVER, S-9, KANECHLOR 500, Method: PREINCUBATION): active; positive | mutagenic call (Test System: AMES SALMONELLA TYPHIMURIUM, Strain/Indicator: TA100(NR), Metabolic Activation: NONE, Method: PREINCUBATION): active; positive | mutagenic call (Test System: AMES SALMONELLA TYPHIMURIUM, Strain/Indicator: TA100/GSH-, Metabolic Activation: NONE, Method: PREINCUBATION): active; positive | mutagenic call [8]: active; positive | mutagenic call (Test System: AMES SALMONELLA TYPHIMURIUM, Strain/Indicator: TA100, Metabolic Activation: RAT, LIVER, S-9, KANECHLOR 500, Method: PREINCUBATION): active; positive

Cc1cccc(C)c1NO
mutagenic call [8]: active; positive | mutagenic call (Test System: AMES SALMONELLA TYPHIMURIUM, Strain/Indicator: TA100, Metabolic Activation: RAT, LIVER, S-9, PCB, Method: PREINCUBATION): active; positive

NCCCCCCN
mutagenic call [1]: inactive; negative | mutagenic call [3]: inactive; negative | mutagenic call [4]: inactive; negative | mutagenic call [6]: inactive; negative | mutagenic call [8]: inactive; negative | mutagenic call [9]: inactive; negative | mutagenic call [11]: inactive; negative | mutagenic call [13]: inactive; negative | mutagenic call [14]: inactive; negative | mutagenic call [16]: inactive; negative | mutagenic call [17]: inactive; negative | mutagenic call [18]: inactive; negative
